Data reported in patent US20100063070A1, “COMBINATION FOR USE IN THE TREATMENT OF INFLAMMATORY DISORDERS” (priority 2006, published 2010).

Columns and labels:
[1] = test system: zymosan-induced PMN leukocyte accumulation; assay: Zymosan-induced peritonitis in the mouse (PMN leukocytes in peritoneal lavage fluid); type: in vivo; conditions: NMRI mice; 5 hours after i.p. zymosan; pemirolast 0.5 mg i.p. with zymosan; atorvastatin sodium 0.35 mg 24 hours and 90 minutes before
Procedure: The atorvastatin injection was given 24 hours before zymosan was administered i.p. and the atorvastatin injection was given 90 minutes before zymosan was administered […]. Prior to injection, atorvastatin was dissolved at 1 mg/mL in sterile PBS using sonication and warming as needed. […] The number of polymorphonuclear (PMN) leukocytes per mL of lavage fluid was counted by light microscopy (using standard morphological criteria) following staining of nuclei with Tü's solution. Lavage fluid from non-inflamed peritoneal cavities from untreated animals provided baseline levels of PMN leukocytes.

[2] = test system: human macrophage cell-line MonoMac-6 (MM6); assay: Inhibition of macrophage proliferation (WST-1 reagent); type: cell-based; conditions: 48 hours, n=5; for inhibition at 10 µM / inhibition at 30 µM / inhibition at 100 µM: Homo sapiens; for inhibition at 10 µM: MONO-MAC-6, 10 μM drug alone; for inhibition at 30 µM: MONO-MAC-6, 30 μM drug alone; for inhibition at 100 µM: MONO-MAC-6, 100 μM drug alone
Procedure: Cells from the human macrophage cell-line MonoMac-6 (MM6) (Ziegler-Heitbrock et al, Int. J. Cancer, 41, 456 (1988)) were cultured (37° C./5% CO2) in RPMI-1640 medium supplemented with 1 mM sodium pyruvate, 1× nonessential amino acids, 1-100 μg/mL insulin, 1 mM oxalacetic acid, 100 units/mL penicillin, 100 μg/mL streptomycin and 10% (v/v) fetal bovine serum. At the start of the experiment, MM6 cells were seeded in 96-well plates at a density of 1×10^5 cells/mL (100 μl per well). Proliferation of the MM6 cells was measured using the Cell Proliferation Reagent WST-1 (Roche Diagnostics Scandinavia AB, Bromma, Sweden) or by cell counting using a microscope. The WST-1 reagent is designed to be used for spectrophotometric quantification of e.g. cell growth in proliferation assays and was used according to the manufacturers' instructions. The wavelength for measuring absorbance was 450 nm and the absorbance of all untreated control cells exposed to the WST-1 reagent was between 1.0 and 2.5. Stock solutions of pemirolast (potassium salt; see Example 19 above) and rosuvastatin (sodium salt; see Example 19 above) were made in sterile saline.
Untreated MM6 cells increased from 1×10^5 cells/mL at the start of the experiment to 1.4×10^5±0.06×10^5 cells/mL and 2.3×10^5±0.10×10^5 cells/mL after 24 and 48 hours, respectively (mean values±sem, n=4 for each of the three time-points). The effects of pemirolast and/or rosuvastatin (added at the start of the experiments) on MM6 cell proliferation were studied 48 hours after start of the experiments using the WST-1 reagent described above.
The procedure described in Example 20 was repeated for atorvastatin (sodium salt; received as atorvastatin calcium as a gift from Biocon, Ltd., Bangalore, India and converted into sodium salt by firstly converting the calcium salt into the free acid by addition of aqueous hydrochloric acid and then, after isolation via extraction, adding one equivalent of aqueous NaOH).

[3] = test system: bone marrow-derived cultured mouse mast cells (mMC); assay: Inhibition of mast cell interferon-γ formation (IgE-receptor cross-linking with TNP-BSA, Cytometric Bead Array); type: cell-based; conditions: for mean IFN-γ concentration in supernatants: mMC stimulated with TNP-BSA for 24 hours, n=2
Procedure: Bone marrow-derived cultured mouse mast cells (mMC) were obtained by culturing bone marrow cells from female C57BL/6 mice. The bone marrow cells (from mouse femurs flushed with PBS) were cultured (37° C./5% CO2) in 10% X-63 enriched conditioned RPMI 1640, supplemented with 10% heat-inactivated fetal bovine serum, 4 mM L-glutamine, 50 μM 2-mercaptoethanol, 1 mM sodium pyruvate, 0.1 mM non-essential amino acids, 10 mM Hepes, 100 units/mL penicillin and 100 μg/mL streptomycin. Development of mast cells was confirmed by toluidine blue staining. The experiments were performed after 6 to 8 weeks of culture. To activate the mMC through cross-linking of cell-surface IgE-receptors, the cultured mMC were initially sensitized for 90 minutes at 37° C. (5% CO2) with a monoclonal mouse anti-TNP IgE-antibody (IgE1-b4, ATCC, Rockville, Md., USA), used as a 15% hybridoma supernatant. Cells were then subjected to two washings with PBS and re-suspended in RPMI-1640 medium supplemented with 0.2% bovine serum albumin (BSA) before the cells (0.5 mL of medium with 1×10^6 cells per mL) were activated by addition of TNP-BSA (Biosearch Technologies, San Francisco, Calif.) with a coupling ratio of 9/1 (the final TNP-BSA concentration was 100 ng/mL). The incubation (37° C./5% CO2) with TNP-BSA was 24 hours. Before the incubation with TNP-BSA, some cells were treated/incubated (37° C./5% CO2) with the test drugs pemirolast (potassium salt purchased from American Custom Chemicals Corporation, San Diego, Calif., USA) and/or rosuvastatin (extracted and purified from commercially available Crestor® tablets and isolated as calcium salt as described in Bioorganic & Medicinal Chemistry, Vol. 5, No. 5, pp 437-444, 1997 by adding CaCl2) 30 minutes prior to addition of TNP-BSA (stock solutions of the drugs were made in sterile saline). For comparison, some experiments were performed without the drug treatments. After the incubations with TNP-BSA, the samples were centrifuged at 4° C. to spin down the cells and the supernatants analysed with regard to content of mouse IFN-γ using the BD™ Cytometric Bead Array (CBA) Mouse Inflammation Kit from BD Biosciences Pharmingen, San Diego, USA (the kit was used according to the manufacturer's instructions).

| SMILES | reduction of zymosan-induced PMN leukocyte accumulation compared with untreated animals [1] [%] | inhibition at 10 µM [2] [%] | inhibition at 30 µM [2] [%] | inhibition at 100 µM [2] [%] | mean IFN-γ concentration in supernatants ([3]; 3 μM drug alone) [µg/mL] | reduction of IFN-γ compared with the untreated cells ([3]; 30 μM drug alone, TNP-BSA 24 hours) | mean IFN-γ concentration in supernatants ([3]; 30 μM drug alone) [µg/mL] | inhibition of MM6 proliferation ([2]; 10 μM drug alone) |
| --- | --- | --- | --- | --- | --- | --- | --- | --- |
| CC(C)c1c(C(=O)Nc2ccccc2)c(-c2ccccc2)c(-c2ccc(F)cc2)n1CC[C@@H](O)C[C@@H](O)CC(=O)O [atorvastatin] | 25.9 | 19.9 | 27 | 54.4 | – | – | – | – |
| Cc1cccn2c(=O)c(-c3nnn[nH]3)cnc12 [pemirolast] | 10.1 | – | – | 9.4 | 2.00 | about 3% | 1.74 | very similar to that of 100 μM of pemirolast |
| CC(C)c1nc(N(C)S(C)(=O)=O)nc(-c2ccc(F)cc2)c1/C=C/[C@@H](O)C[C@@H](O)CC(=O)O [rosuvastatin] | – | 16.6 | 22.7 | 66.9 | 2.26 | – | 1.88 | – |
